{"source": "patent US10314883B2", "about": "“Compositions and methods for regulating blood pressure” (University of Virginia Patent Foundation, priority 2015, dated 2019)", "key": {"[1]": {"tested_on": "thoracodorsal arteries (TDA)", "test": "ATP release from intact TDA (luciferin:luciferase)", "assay_type": "cell-based, mouse", "conditions": "for effect on phenylephrine-induced ATP release from intact TDAs: phenylephrine 100 μmol/L, ^10Panx1 300 μmol/L, peptides 3 μmol/L", "description": "Mouse TDAs of equal length were isolated and washed thoroughly to eliminate red blood cells. Vessels were placed in a well of a 96-well plate containing Krebs-HEPES solution supplemented with 1% BSA at 37° C. for 30 minutes to allow for degradation of any ATP released as a result of mechanical stimulation during manipulation of the vessel. For measurements performed on HEK cells: 24 hours after transfection, cells cultured in 24-well plates were cautiously washed twice with warm Krebs-HEPES-BSA and 300 μl of Krebs-HEPES-BSA was added to each well after the last wash as previously described. The plate was then kept in the incubator at 37° C. with 5% CO2 for 30 minutes to allow for degradation of ATP eventually released during the washes.\nThe ectonucleotidase inhibitor ARL67156 (300 μmol/L) was applied to each well. When indicated, ^10Panx1 (300 μmol/L) or the peptides analog to intracellular regions of Panx1 (3 μmol/L) were added along with the ARL67156. After a 30 minute incubation at 37° C. with the inhibitor(s), phenylephrine (100 μmol/L) or equivalent volume of Krebs-HEPES-BSA was added and the plate was kept at 37° C. After five minutes of phenylephrine stimulation, the media surrounding the TDA or the cells was transferred to an Eppendorf tube and centrifuged for five minutes at 5,000×g to eliminate eventual cell debris. Fifty microliters of the supernatant was transferred to a white-wall 96 well plate and placed in a FluoStar Omega luminometer. The ATP concentration was measured by adding 50 μL of luciferin:luciferase reagent (ATP bioluminescence assay kit HSII; Roche), which was injected into each well and the luminescence was immediately recorded. Data are expressed as a percent increase in ATP concentration compared to unstimulated condition. Each stimulated condition was compared to unstimulated condition performed on the same day, and all experiments were performed on at least 15 wells of HEK cells or three TDAs. Data were analyzed using a Kruskall Wallis test (non-parametric one-way ANOVA) followed by Dunn's post-hoc test.\nTo determine if the TDA response involved release of ATP, we dissected TDAs from C57Bl/6 mice and measured the accumulation of extracellular ATP in response to various agonists in the medium (FIG. 1E, inset). The TDAs were placed in a well of a 96 well plate in Krebs-HEPES solution and treated with the ectonucleotidase inhibitor ARL67156 for 30 minutes. Next, arteries were treated with a contractile agonist for five minutes and the amount of ATP in the media surrounding the vessel was determined using the ATP bioluminescence assay kit HSII (Roche)."}, "Panx1 [2]": {"target": "T1, Panx1 (Mus musculus, UniProt Q9JIP4)", "T1 construct": "we progressively substituted amino acids in this region of full-length Panx1 with alanine residues; HA; expressed in transfected cells; host or cells: HEK293T cells, transient co-transfection with alpha1DAR plasmid (Origene, NM_013460, C-terminal Myc-DDK)", "T1 sequence (Q9JIP4 whole entry)": "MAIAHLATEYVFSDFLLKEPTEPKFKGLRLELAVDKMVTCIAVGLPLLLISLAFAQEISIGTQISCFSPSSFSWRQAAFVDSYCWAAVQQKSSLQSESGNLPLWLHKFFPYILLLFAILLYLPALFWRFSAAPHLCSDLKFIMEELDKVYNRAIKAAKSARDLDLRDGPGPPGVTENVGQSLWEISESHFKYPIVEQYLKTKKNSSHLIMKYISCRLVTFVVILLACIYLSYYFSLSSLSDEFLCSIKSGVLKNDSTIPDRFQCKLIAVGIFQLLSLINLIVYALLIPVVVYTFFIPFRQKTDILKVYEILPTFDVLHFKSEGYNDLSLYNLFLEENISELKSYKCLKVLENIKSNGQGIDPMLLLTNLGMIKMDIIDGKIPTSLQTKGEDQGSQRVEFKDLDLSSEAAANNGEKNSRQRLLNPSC", "test": "Whole-cell patch clamp of CBX-sensitive Panx1 current in HEK293 cells cotransfected with mPanx1 and α1DAR", "assay_type": "cell-based", "conditions": "phenylephrine 20 μmol/L; for effect on phenylephrine-induced Panx1 current: cells pre-incubated with peptide 40-60 minutes", "description": "(§1) Human Embryonic Kidney (HEK) 293T cells were cultured as previously described, and were used until passage 20. For ATP measurements, 50,000 cells/well were seeded in 24 well plates pre-coated with 0.01% poly-L-lysine, and transfected using Lipofectamine 2000 (Invitrogen) according to the manufacturer protocol. Briefly, 0.4 μg of α1DAR and 0.4 μg of Panx1^WT, Panx1^KYP>AAA, Panx1^IVEQ>AAA or Panx1^YLK>AAA plasmids were added to each well along with 2 μl of Lipofectamine 2000. For electrophysiology measurements, 4 μg of α1DAR plasmid, 2 μg of Panx1^WT, Panx1^KYP>AAA, Panx1^IVEQ>AAA or Panx1^YLK>AAA plasmids, and 0.5 μg of GFP plasmid were mixed with 10 μl Lipofectamine 2000 and added to a well of 6-well plate seeded with ˜70% confluent HEK cells. Cells were split the next morning and plated onto a glass coverslip for recording. ATP measurements and whole-cell recordings were performed 24 hours after transfection.\nWhole-cell recordings were obtained at room temperature from transiently transfected HEK293T cells using Axopatch 200B amplifier (Molecular Devices) in a bath solution composed of 140 mmol/L NaCl, 3 mmol/L KCl, 2 mmol/L MgCl2, 2 mmol/L CaCl2, 10 mmol/L HEPES and 10 mmol/L glucose (pH 7.3). Patch pipettes (3-5 MΩ) were filled with a Cs-/TEA-based internal solution, as previously described. Ramp voltage commands with 7-s intervals were applied using pCLAMP software and Digidata1322A digitizer (Molecular Devices). Peak whole-cell currents were determined at +80 mV and normalized to cell capacitance. Current mediated by Panx1 was defined by its sensitivity to carbenoxolone (CBX). In this system, no CBX-sensitive current is observed in HEK293T cells without Panx1. Basal current was recorded for approximately two minutes and PE (20 μmol/L) was applied to the bath solution, which was followed by addition of CBX (50 μmol/L). When indicated, cells were pre-incubated with bath solution containing IL2 peptide or its scrambled version at room temperature for 40-60 minutes prior to the experiment. The effect of PE on Panx1 current was quantified relative to CBX-sensitive basal current, and data was expressed as percent increase in CBX-sensitive current. All experiments were performed on 8 to 22 cells for each conditions tested. Data were analyzed using a Kruskall Wallis test (non-parametric one-way ANOVA) followed by Dunn's post-hoc test.\nTo test if α1AR stimulation triggered opening of the Panx1 channel and the importance of the region represented by the IL2 peptide, we cotransfected mPanx1 and α1DAR into HEK293 cells and monitored whole-cell currents by patch clamp electrophysiology."}, "Panx1 [3]": {"target": "T1, Panx1", "test": "ATP release from HEK293 cells cotransfected with mPanx1 and α1DAR", "assay_type": "cell-based", "conditions": "peptide 3 μmol/L, phenylephrine 100 μmol/L", "description": "as §1, with “ATP measurements and whole-cell recordings were performed 24 hours after transfection.” left out\nThe ectonucleotidase inhibitor ARL67156 (300 μmol/L) was applied to each well. […] The ATP concentration was measured by adding 50 μL of luciferin:luciferase reagent (ATP bioluminescence assay kit HSII; Roche), which was injected into each well and the luminescence was immediately recorded. Data are expressed as a percent increase in ATP concentration compared to unstimulated condition. […] Data were analyzed using a Kruskall Wallis test (non-parametric one-way ANOVA) followed by Dunn's post-hoc test."}}}
{"molecule": "CNC[C@H](O)c1cccc(O)c1", "note": "[Phenylephrine, phenylephrine]", "values": [{"measurement": "ATP release from intact TDAs in response to agonist", "setting": "[1]; five minutes of agonist, ARL67156 300 μmol/L", "result": "stimulated ATP release"}, {"measurement": "effect of agonist on Panx1 whole-cell current", "setting": "Panx1 [2]; cells expressing both mPanx1 and α1DAR", "result": "increased this current"}]}
{"molecule": "KYPIVEQYLKYGRKKQRRR [IL2]", "values": [{"measurement": "effect on phenylephrine-induced ATP release from intact TDAs", "setting": "[1]", "result": "significantly decreased"}, {"measurement": "effect on phenylephrine-induced ATP release", "setting": "Panx1 [3]", "result": "significantly decreased"}, {"measurement": "effect on phenylephrine-induced Panx1 current", "setting": "Panx1 [2]", "result": "significantly decreased"}]}
{"molecule": "scrambled intracellular loop 2 IYLYVEQKPY (SEQ ID NO: 7) linked with a TAT sequence [Scrambled IL2]", "values": [{"measurement": "effect on phenylephrine-induced ATP release from intact TDAs", "setting": "[1]", "result": "no effect"}, {"measurement": "effect on phenylephrine-induced ATP release", "setting": "Panx1 [3]", "result": "no effect"}, {"measurement": "effect on phenylephrine-induced Panx1 current", "setting": "Panx1 [2]", "result": "no effect"}]}
